Laboratory results as given in patent EP0151577B1 (priority 1983, dated 1984).

Tests used:
M. Leprae [1] = assay: Multiplication of M. leprae in mouse foot pads; format: in vivo, Mycobacterium leprae; conditions: 20 mg/kg par voie orale, daily from inoculation
Description: Le tableau 7 contient les résultats d'essai concernant l'activité du DF-5HTP sur les M. leprae sur les pattes de souris. Le protocole experimental était le suivant:
MESTER, L., and BALAKRISHNAN, S., Desoxyfructo-serotonin: First Human Metabolite with Antileprosy Activity. Acta Lepr. N°83, 21, 1981.
La dose de DF-5HTP était de 0,5 mg par 5 g de nourriture et par souris. Cette dose était administrée tous les jours a partir de la date d'inoculation. Les essais ont porté sur un lot de 24 souris.
Protocole: Sur la patte de chaque souris on a inoculé 5 x 10^6 M.leprae montrant un index morphologique (I. M.) = 2 %. Les chiffres suivis par X indiquent la multiplication de M. leprae initialement inoculé. (Pour la méthode utilisée voir MESTER, L., and BALAKRISHNAN, S., Desoxyfructo-serotonin: First Human Metabolite with Antileprosy Activity, Acta Lepr. N° 83, 21,1981.

souris [2] = assay: Rotarod test
Description: Les mesures ont été faites a 15, 30 et 60 minutes après I'administration par voie intrapéritonéale (i.p.) a des souris.

[3] = Acute toxicity in the mouse, DL50 i.v. (Behrens-Karber); conditions: in vivo, iv, souris, survivors checked 15 days after administration, read-out: DL 50 i.v.
Source text: D'autres études pharmacologiques ont été entreprises, en particulier pour apprécier la toxicite aigue chez la souris. Les divers produits étudiés sont administrés a doses croissantes en progression arithmetique a des lots de 5 souris femelles SWISS, EOPS, NMRI/Han pesant 23 a 24 g.
Les produits sont solubilises dans I'eau distillée. Les DL 50 sont calculées par la méthode de BEHRENS (B.) et KARBER (C.). Le nombre d'animaux survivants dans les differents lots est vérifié 15 jours après I'administration des produits. La toxicité aigue (DL 50) exprimée en g/kg est supérieure a 5, avec la voie d'administration i.v. pour le DF-5HTP un produit représentatif selon l'invention.

souris [4] = assay: General pharmacological profile: respiratory rate; format: in vivo; conditions: souris
Source text: (§1) Activite motrice spontanée: MODIGH, K., Central and peripheral effects of 5-hydroxytryptophan on motor activity in mice. Psychopharmacologia (Berlin), 23, 48, 1972. Cadence respiratoire: […], S., and VALZELLI, L. Serotonin and cardiovascular system, Chapter 9, in "Serotonin", Elsevier Publ. Co. Amsterdam 1965.
COHEN, Y. and BLANCHARD, P. Influence de la chelation du calcium sur les effets tensionnels de la sérotonine chez le chien. J. Physiol., 52, 569,1960.
BRAUNWALD, E. Control of myocardial oxygen consumption: Physiologic and clinical considerations. Am. J. Cardiol., 27 (4), 416,1971.

souris [5] = assay: General pharmacological profile: spontaneous motor activity; format: in vivo; conditions: souris
Source text: as §1

souris [6] = assay: Anticonvulsant activity, MES; format: in vivo
Source text: Activite anticonvulsivante (MES): % de protection Temps de sommeil au pentobarbital: WYATT, R.J., ZARKONE, V. […], K., DEMENT, W.C., SMYDER, F. and SJOERDSMA, A., Effects of 5-Hydroxytryptophan on the sleep of normal human subjects. Electroencephaly and Clinical Neurophysiology 30, 5051971.

M. Leprae [7] = assay: Incorporation of 3H-DOPA by M. leprae in vitro; format: cell-based, Mycobacterium leprae; conditions: 6 h
Source text: Le tableau 6 rassemble des résultats d'essai concernant l'activité du DF-5HTP sur l'incorporation de la DOPA dans les Mycobacteries de la lèpre. Le protocole experimental était celui décrit dans JAYARAMAN, P., […], P.R., MESTER, M. and MESTER, L. Inhibition of the incorporation of ^3H-DOPA in Mycobacterium leprae by Desoxyfructo-serotonin. Biochem. Pharm., 29, 2526,1980.
On a inoculé 5 x 10^6 M. leprae par tube; le milieu était un tampon phosphate à pH 6,8. La quantité de 3H-DOPA était de 1 µ. Ci/tube.
Protocole: Chaque tube de 0,5 ml est inocule de 5 x 10^6 M. leprae et de 1 µ Ci de ^3H-DOPA. Après 6 heures, I'incorporation de la DOPA radioactive est enregistrée en DPM selon la technique utilisée dans JAYARAMAN, P., […], P.R., MESTER, M. and MESTER, L. Inhibition of the Incorporation of ^3H-DOPA in Mycobacterium leprae by Desoxyfructo-serotonin. Biochem. Pharm., 29,2526,1980.

[8] = system: 5-HT (dans tout le cerveau); assay: Amount of serotonin (5-HT) in whole brain, spectrophotofluorometric; format: in vivo, souris
Source text: Les quantités de sérotonine ont été estimees par une méthode spectrophotofluorométrique, telle que décrite par Solomon et al. Biochem. Pharmacology 14, 831 (1965). Les résultats de ces essais sont rassemblés dans le Tableau 10 ci-après.
• * Chaque valeur représente la moyenne de quatre animaux d'experience (souris) • ** La concentration de 5-HT est exprimée par gramme de tissu frais (cerveau).

Tension sanguine = assay: Cardiovascular activity: blood pressure; format: in vivo
Source text: Le protocole experimental était celui décrit dans "Sugar Derivatives of Indolamines. part V: Cardiovascular Effects and "Anti-stress" Activity of Desoxyfructose Derivative of Serotonin and 5-Metho-xy- tryptamin", L. Mester, M. Mester, K.P. Bhargava, C. Labrid, G. Dureng and M. Cheucle, THROMBOSIS […], 15,245,1979.

[9] = 10 mg par voie cérébroventriculaire

**Q.** What does the source list for `O=C(O)C(Cc1c[nH]c2ccc(O)cc12)NCC1(O)OCC(O)C(O)C1O` (centres unmarked) [DF-5HTP, N-1-desoxyfructo-5-hydroxytryptophane]?
**A.** multiplication de M. Leprae sur les pattes des souris (M. Leprae [1]; 4 mois après inoculation, témoins 33,8 X): 2,8 X; multiplication de M. Leprae sur les pattes des souris (M. Leprae [1]; 6 mois après inoculation, témoins 38,4 X): Négatif; Essai à la tige Rotarod: Défaut de coordination musculaire observé (Nbre de souris) (souris [2]; 100 mg/kg (ip), 15 min): 0/5; Essai à la tige Rotarod: Défaut de coordination musculaire observé (Nbre de souris) (souris [2]; 100 mg/kg (ip), 30 min): 0/5; Essai à la tige Rotarod: Défaut de coordination musculaire observé (Nbre de souris) (souris [2]; 100 mg/kg (ip), 60 min): 0/5; Essai à la tige Rotarod: Défaut de coordination musculaire observé (Nbre de souris) (souris [2]; 174 mg/kg (ip), 15 min): 0/5; Essai à la tige Rotarod: Défaut de coordination musculaire observé (Nbre de souris) (souris [2]; 174 mg/kg (ip), 30 min): 0/5; Essai à la tige Rotarod: Défaut de coordination musculaire observé (Nbre de souris) (souris [2]; 174 mg/kg (ip), 60 min): 0/5; Performance à l'essai Rotarod Moyenne (Sec) (souris [2]; 174 mg/kg i.p., témoin 11,3 ± 3,1): 16,4 ± 2,4 (30) Sec; LD50 at 360 h [3]: > 5000 mg/kg; Cadence respira-toire (souris [4]; 100 mg/kg (ip), Tableau 2): sans effet; Cadence respira-toire (souris [4]; 174 mg/kg (ip)): sans effet; Activité motrice spontanée (souris [5]; 100 mg/kg (ip), Tableau 2): légère augmentation; Activité motrice spontanée (souris [5]; 174 mg/kg (ip)): augmentation; Activité anticon-vulsivante MES % protection (souris [6]; 100 mg/kg (ip), 15 min, Tableau 2): 0%; Activité anticon-vulsivante MES % protection (souris [6]; 100 mg/kg (ip), 30 min): 0%; Activité anticon-vulsivante MES % protection (souris [6]; 100 mg/kg (ip), 60 min): 0%; Activité anticon-vulsivante MES % protection (souris [6]; 174 mg/kg (ip), 15 min): 20%; Activité anticon-vulsivante MES % protection (souris [6]; 174 mg/kg (ip), 30 min): 20%; Activité anticon-vulsivante MES % protection (souris [6]; 174 mg/kg (ip), 60 min): 0%; incorporation de 3H-DOPA par M. Leprae (M. Leprae [7]; 1 µg/ml, Armadillo M.Leprae N°2275/5, témoins 5977): 2922 DPM; incorporation de 3H-DOPA par M. Leprae (M. Leprae [7]; 1 µg/ml, Armadillo M.Leprae N°2275/5 Tués par la chaleur, témoins 915): 1008 DPM; incorporation de 3H-DOPA par M. Leprae (M. Leprae [7]; 1 µg/ml, Armadillo M.Leprae N°2457/103, témoins 4215): 2555 DPM; incorporation de 3H-DOPA par M. Leprae (M. Leprae [7]; 1 µg/ml, Armadillo M.Leprae N°2457/103 Tués par la chaleur, témoins 2855): 2660 DPM; incorporation de 3H-DOPA par M. Leprae (M. Leprae [7]; 5 µg/ml, Armadillo M.Leprae N°2275/5, témoins 5977): 1599 DPM; incorporation de 3H-DOPA par M. Leprae (M. Leprae [7]; 5 µg/ml, Armadillo M.Leprae N°2275/5 Tués par la chaleur, témoins 915): 732 DPM; incorporation de 3H-DOPA par M. Leprae (M. Leprae [7]; 5 µg/ml, Armadillo M.Leprae N°2457/103, témoins 4215): 1930 DPM; incorporation de 3H-DOPA par M. Leprae (M. Leprae [7]; 5 µg/ml, Armadillo M.Leprae N°2457/103 Tués par la chaleur, témoins 2855): 2675 DPM; Quantités de 5-HT (dans tout le cerveau) ([8]; 100 mg/kg i.p., 15 min., Solution Saline 60,0, mean of 4 souris): 87,5; Quantités de 5-HT (dans tout le cerveau) ([8]; 174 mg/kg i.p., 15 min., Solution Saline 60,0, mean of 4 souris): 75,0; Quantités de 5-HT (dans tout le cerveau) ([8]; 174 mg/kg i.p., 30 min., par gramme de tissu frais, Solution Saline 107): 200,4; Quantités de 5-HT (dans tout le cerveau) ([8]; 174 mg/kg i.p., 60 min., par gramme de tissu frais, Solution Saline 100): 160,8; Tension sanguine Durée (Tension sanguine; [9]): 50 min; Tension sanguine Mesure à (Tension sanguine; [9]): 1 min; Tension sanguine Pic (Tension sanguine; [9]): 5 min; Tension sanguine Durée (Tension sanguine; 100 mg par voie intraveineuse): 30 min; Tension sanguine Mesure à (min) (Tension sanguine; 100 mg par voie intraveineuse): immé-diat; Tension sanguine Pic (Tension sanguine; 100 mg par voie intraveineuse): 1 min
